Source: PubChem BioAssay (NCI)
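Protocol summary: plate cells (96-well), add compound at 5 concentrations, incubate 48 h, interpolate endpoints linearly. Abbreviation: GI50, concentration required for 50% inhibition of growth. At the TGI there is no net growth.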

Key:
Assay in all cases: NCI anticancer screen, dose series, 48 h
[1] = test system: CAKI-1 renal
[2] = test system: SNB-78 CNS
[3] = test system: MOLT-4 leukemia
[4] = test system: OVCAR-3 ovarian
[5] = test system: UACC-62 melanoma
[6] = test system: DLD-1 colon
[7] = test system: OVCAR-4 ovarian
[8] = test system: HS 578T breast
[9] = test system: MDA-MB-231 breast
[10] = test system: DMS 273 small cell lung
[11] = test system: MCF7 breast
[12] = test system: XF 498 CNS
[13] = test system: A498 renal
[14] = test system: KM20L2 colon
[15] = test system: U251 CNS
[16] = test system: OVCAR-5 ovarian
[17] = test system: NCI-H460 lung
[18] = test system: RPMI-8226 leukemia
[19] = test system: TK-10 renal
[20] = test system: 786-0 renal
[21] = test system: OVCAR-8 ovarian
[22] = test system: A549 NSCLC
[23] = test system: HCT-15 colon
[24] = test system: SK-OV-3 ovarian
[25] = test system: CCRF-CEM leukemia
[26] = test system: COLO 205 colon
[27] = test system: SK-MEL-28 melanoma
[28] = test system: SF-268 CNS
[29] = test system: HL-60(TB) leukemia
[30] = test system: HT29 colon
[31] = test system: T-47D breast
[32] = test system: HCT-116 colon
[33] = test system: SF-295 CNS
[34] = test system: LOX IMVI melanoma
[35] = test system: NCI-H522 lung
[36] = test system: UO-31 renal
[37] = test system: HOP-92 NSCLC
[38] = test system: SN12C renal
[39] = test system: SNB-19 CNS
[40] = test system: LXFL 529 NSCLC
[41] = test system: KM12 colon
[42] = test system: BT-549 breast
[43] = test system: UACC-257 melanoma
[44] = test system: IGROV1 ovarian
[45] = test system: RXF 393 renal
[46] = test system: SR leukemia
[47] = test system: SK-MEL-5 melanoma
[48] = test system: NCI-H226 lung
[49] = test system: HOP-62 NSCLC

Which results are given for `C[CH2][Sn]([CH2]C)([O]C(=O)c1cccc(OC)c1)[O][Sn]([CH2]C)([CH2]C)[O]C(=O)c1cccc(OC)c1`?
GI50 [1]: 11.8 µM; TGI [1]: 24.3 µM; GI50 [2]: 16.2 µM; TGI [2]: 32.9 µM; GI50 [3]: 27.9 µM; TGI [3]: > 72.4 µM; GI50 [4]: 58 µM; TGI [4]: > 100 µM; GI50 [5]: 16.6 µM; TGI [5]: 31.4 µM; GI50 [6]: 14.3 µM; TGI [6]: 29.6 µM; GI50 [7]: 17.9 µM; TGI [7]: 35.3 µM; GI50 [8]: 29.3 µM; TGI [8]: > 100 µM; GI50 [9]: 16 µM; TGI [9]: 33.5 µM; GI50 [10]: 22.7 µM; TGI [10]: 58.5 µM; GI50 [11]: 10.1 µM; TGI [11]: 26.6 µM; GI50 [12]: 16.1 µM; TGI [12]: 29.6 µM; GI50 [13]: 16 µM; TGI [13]: 30.2 µM; GI50 [14]: 43.6 µM; TGI [14]: > 100 µM; GI50 [15]: 18.6 µM; TGI [15]: 35.1 µM; GI50 [16]: 27 µM; TGI [16]: > 61.6 µM; GI50 [17]: > 71 µM; TGI [17]: > 100 µM; GI50 [18]: 13 µM; TGI [18]: 54.3 µM; GI50 [19]: 16.8 µM; TGI [19]: 30.7 µM; GI50 [20]: 17 µM; TGI [20]: 30.7 µM; GI50 [21]: > 42.1 µM; TGI [21]: > 57 µM; GI50 [22]: > 100 µM; TGI [22]: > 100 µM; GI50 [23]: 17.4 µM; TGI [23]: 35.4 µM; GI50 [24]: > 100 µM; TGI [24]: > 100 µM; GI50 [25]: 3.17 µM; TGI [25]: 17.7 µM; GI50 [26]: 22 µM; TGI [26]: > 54.8 µM; GI50 [27]: 16.3 µM; TGI [27]: 35.9 µM; GI50 [28]: 23.2 µM; TGI [28]: > 56.6 µM; GI50 [29]: 19.2 µM; TGI [29]: 70.9 µM; GI50 [30]: 33.2 µM; TGI [30]: > 100 µM; GI50 [31]: 3.05 µM; TGI [31]: 13.5 µM; GI50 [32]: > 43.2 µM; TGI [32]: > 58.8 µM; GI50 [33]: 20.8 µM; TGI [33]: 40.3 µM; GI50 [34]: 11.4 µM; TGI [34]: 25.9 µM; GI50 [35]: 0.879 µM; TGI [35]: 2.4 µM; GI50 [36]: 34 µM; TGI [36]: > 53.5 µM; GI50 [37]: 15 µM; TGI [37]: 29.8 µM; GI50 [38]: 19.9 µM; TGI [38]: 44.9 µM; GI50 [39]: 23.1 µM; TGI [39]: 57.1 µM; GI50 [40]: 10.1 µM; TGI [40]: 21.7 µM; GI50 [41]: > 100 µM; TGI [41]: > 100 µM; GI50 [42]: 15.4 µM; TGI [42]: 29.4 µM; GI50 [43]: 17.2 µM; TGI [43]: 34.6 µM; GI50 [44]: > 100 µM; TGI [44]: > 100 µM; GI50 [45]: 15 µM; TGI [45]: 28.4 µM; GI50 [46]: 26.3 µM; TGI [46]: > 100 µM; GI50 [47]: 42.9 µM; TGI [47]: > 64 µM; GI50 [48]: 18.4 µM; TGI [48]: 33.2 µM; GI50 [49]: > 58.2 µM; TGI [49]: > 100 µM
